Experimental data published in patent US20020120147A1, “Micronized torsemide” (priority 2000, published 2002).

Tests used:
[1] = particle size after micronization in a micronizer; format: physicochemical; settings: pure dry torsemide micronized in a micronizer (Example 1)
Excerpt: Pure dry torsemide was micronized in a micronizer. The result was micronized torsemide of a particle size of less than 5 micrometer.

[2] = background statement; cited from earlier work

SMILES | particle size [1] | solubility in water [2]
Cc1cccc(Nc2ccncc2S(=O)(=O)NC(=O)NC(C)C)c1 [micronized torsemide, 1-Isopropyl-3-[(4-m-toluidino-3-pyridyl)sulfonyl] urea] | less than 5 micrometer | –
Cc1cccc(Nc2ccncc2S(=O)(=O)NC(=O)NC(C)C)c1 [Torsemide, 1-Isopropyl-3-[(4-m-toluidino-3-pyridyl)sulfonyl] urea] | – | essentially insoluble
